In US20180369186A1, “METHOD FOR MODULATING AUTOPHAGY AND APPLICATIONS THEREOF” (JAWAHARLAL NEHRU CENTRE FOR ADVANCED SCIENTIFIC RESEARCH, priority 2015, published 2018):

Tests used:
HeLa and SH-SY5Y cells = experiment: Cell viability of HeLa and SH-SY5Y after 72 h (CellTitre Glo); assay type: cell-based, human; settings: various concentrations
Method: In another embodiment of the present disclosure, FIG. 47 illustration non-toxicity of XCT 790 to cells (Hela and SHSY5Y) and scheme for α-synculein toxicity assay. Cell viability of cell lines like HeLa (a) and SH-SY5Y (b) after 72 h of XCT 790 treatments for various indicated concentrations. Cell viability was assayed using CellTitre Glo (Promega) kit.

[1] = tested on: SH-SY5Y cells (autophagosomes and autolysosomes); experiment: Tandem RFP-EGFP-LC3 assay in SH-SY5Y cells; assay type: cell-based, human; settings: 2 h
Method: Sub-confluent HeLa and/or SH-SY5Y cells are seeded into 60 mm cell culture dishes, then transfected with ptf LC3 construct and/or siRNA and allowed to express for 48 h. Cells are trypsinized, seeded again on poly-D-lysine coated cover slips in a 12 or 24 well plates and allowed to attach. After appropriate treatments, the coverslips containing cells are processed for imaging. For immunofluorescent antibody staining, the cover slips are incubated in primary antibody at 4° C. for overnight followed by secondary antibody incubation at room temperature.
For imaging the mammalian cells, after appropriate treatments, coverslips containing cells are fixed using 4% paraformaldehyde (PFA) (Sigma) and then permeabilized using Triton X-100 (0.2%, HiMedia). On slide, coverslips are mounted using antifade, Vectashield mounting medium (Vector laboratories). For antibody staining, coverslips are blocked using 5% BSA for 1 h at room temperature, then incubated with primary antibody at 4° C., overnight and then subsequently probed with corresponding fluorescent dye conjugated secondary antibody.

EGFP-α-synuclein = EGFP-α-synuclein degradation assay in SH-SY5Y cells; assay type: cell-based, human
Method: For EGFP-α-synuclein degradation assay, equal numbers of sub-confluent SH-SY5Y cells are seeded in 6 well dishes and allowed to attach for 24 h. Cells are transfected with EGFP-α-synuclein plasmid using Lipofectamine 2000 (Life technologies) and allowed to express for 24 h.
After treatments, cells are collected in Laemmli buffer to perform LC3 processing assay, P70S6K, GSK3β and 4E-BP1 immunoblotting. To validate EGFP-α-synuclein degradation by 6-Bio, treated cells are scraped and collected in growth medium. After washing with phosphate buffer, pellets are lysed in Laemmli buffer and boiled for 10 min.
Samples are electrophoresed on SDS-PAGE (8-15%) and then transferred onto PVDF (Bio-Rad) membrane using Transblot turbo (Bio-Rad). Transferred blots are stained with Ponceau S, probed with appropriate primary antibodies overnight and subsequently horseradish peroxidase conjugated secondary antibody. Signals are developed using enhanced chemiluminescence substrate (Clarity, Bio-Rad), imaged using a gel documentation system (G-Box, Syngene) and bands are quantified using image software (NIH). (FIGS. 4F and 5A)

p62 = p62 co-localization with mRFP-MAP1LC3B in HeLa cells; assay type: cell-based, human
Method: Appropriate number of cells are plated on top of coverslips placed in 65 mm cell culture dishes for transfection. Transfected cells are divided into different treatment groups. Post treatment, cells are washed with PBS and fixed in 4% paraformaldehyde and permeabilized using 0.25% Triton X-100, Overnight incubation with Anti-p62/SQSTM1 (rabbit polyclonal, #PM045), Anti-EEA1 (rabbit polyclonal, CST #3288) is done at 4° C. Excess antibody is washed with PBS and coverslips are incubated with Atto-633 (goat anti-rabbit IgG, Sigma #41176). The coverslips are mounted with […] antifade reagent (H-1000/H-1200, Vector laboratories). Imaging for HeLa cells is carried out using Delta vision microscope (Olympus 60×/1.42, Plan ApoN, excitation and emission filter Cy5, FITC and TRITC, polychroic Quad).
ImageJ software (NIH) is used to calculate the mean intensity. Images are opened using the split channel plugin. Co-localization plugin in the analysis tools is used to obtain the colocalized area between two channels as a separate window. The intensity is calculated using the measure plugin in analysis tools.

[2] = tested on: autophagy (degradation of firefly luciferase); experiment: Dual luciferase assay to monitor autophagy in real time; assay type: cell-based, S. cerevisiae; settings: 1 μM, 10 μM, 25 μM and 50 μM
Excerpt: The S. cerevisiae shuttle vectors pRS306 (URA) and pRS305 (LEU) are used to clone the POT1 promoter and the Firefly and Renilla luciferase genes, respectively. The oleate responsive region of the POT1 promoter is amplified from yeast genomic DNA and along with the firefly and Renilla luciferase genes (firefly gene from pMY30 and Renilla gene from pRL-TK) is cloned into these vectors to obtain the constructs pPM3 and pPM5. These plasmid constructs are linearized using suitable restriction enzymes in the selection marker and transformed into wild type strains of S. cerevisiae and P. pastoris by standard transformation methods-Lithium acetate or PEG based transformation. […]
To validate the luciferase assay developed in the laboratory, it is compared to the conventional Pot1-GFP processing assay, Both pexophagy and general autophagy are measured by following the rates of degradation of firefly and Renilla activities (FIG. 1A).
Thus, a 3 standard deviation (SD) parameter is used as a criterion to obtain the hits from the primary screen. […] Both the inhibitors show a dose dependent inhibition in autophagy as determined using luciferase assay wherein inhibition by concentrations 1 μM, 10 μM, 25 μM and 50 μM of the inhibitors are assessed and inhibition is observed to increase as concentration increases from 1 μM to 50 μM. […]

COc1cc(C=C(C#N)C(=O)Nc2nnc(C(F)(F)F)s2)ccc1OCc1ccc(C(F)(F)F)cc1C(F)(F)F [XCT 790, 3-[4-(2,4-Bis-trifluoromethylbenzyloxy)-3-methoxyphenyl]-2-cyano-N-(5-trifluoromethyl-1,3,4-thiadiazol-2-yl)acrylamide]
toxicity to cells (HeLa and SH-SY5Y cells): non-toxicity
autolysosomes, fold vs control [1]: ~4 fold
autophagosomes, fold vs control [1]: ~2 fold

O=C1Nc2cc(Br)ccc2/C1=C1/Nc2ccccc2/C1=N\O [6-Bio, (2′Z,3′E)-6-Bromoindirubin-3′-oxime]
reduction of EGFP-α-synuclein levels (EGFP-α-synuclein; 5 μM, 24 h, versus untreated): ~2 fold
EGFP-α-synuclein levels on co-treatment with 3-MA (EGFP-α-synuclein; with 3-methyl adenine (5 mM)): does not change

Cc1ccc(S(=O)(=O)/C=C/C#N)cc1 [Bay11, 3-[(4-methylphenyl)sulfonyl]-(2E)-propenenitrile]
p62 accumulation relative to mRFP-MAP1LC3B-positive compartments (p62): outside
effect on rates of degradation of firefly luciferase (inhibition of autophagy) [2]: dose dependent effect
